According to US8211463B2, “Use of glycolipids as adjuvants” (Helmholtz-Zentrum Fuer Infektionsforschung GmbH, priority 2006, dated 2012):
“Also recorded” adds a separate entry of the source.

Tests used:
[1] = test system: β-Gal-specific IgG isotypes; experiment: IgG isotype ELISA (IgG, IgG1, IgG2a) in sera of vaccinated mice; type: in vivo, Balb/c mice; conditions: for enhancement of β-Galactosidase-specific IgG secretion vs β-Gal alone / increase of β-Gal-specific IgG1 secretion vs β-Gal alone / increase of β-Gal-specific IgG2a secretion vs β-Gal alone / increase of β-Gal specific IgG1 secretion vs β-Gal alone / secretion of IgG2a isotype vs β-Gal alone: 10 μg glycolipid; for enhancement of β-Galactosidase-specific IgG2a isotype vs β-Gal alone: 20 or 30 μg glycolipid, dose-dependent; for increase of β-Gal specific IgG1 secretion vs β-Gal alone / secretion of IgG2a isotype vs β-Gal alone: s.c. (parenteral)
Procedure: Co-administration of β-Gal with 10 μg glycolipids 1, 5 and 6 induced β-Gal-specific systemic IgG responses in Balb/c mice. Balb/c mice were immunized by the i.n. or s.c. route with β-Gal alone or together with glycolipids 1, 5 and 6 three times at 2-wk intervals. 10 days after the final immunization, the immunized mice were sacrificed. The levels of β-Gal-specific titers of IgG isotypes were determined in Sera of mice immunized by the i.n. (A) and s.c. (B) route. […] Bars represent mean Ab titer or amount±SE in each group. Each group consists of five mice. Data are representative of three separate experiments.
Co-administration of β-Gal with 20 or 30 μg glycolipids 5 and 6, respectively, induced β-Gal-specific systemic IgG responses in Balb/c mice. Balb/c mice were immunized by the i.n. or s.c. route with β-Gal alone or together with glycolipids 5 and 6 three times at 2-wk intervals. 10 days after the final immunization, the immunized mice were sacrificed. The levels of β-Gal-specific titers of IgG isotypes were determined in Sera of mice immunized by the i.n. (A) and s.c. (B) route. […] The parenteral administration of with β-Gal co-administered with 20 μg glycolipids 5 and 6 enhanced the β-Galactosidase-specific IgG1 isotype titer (>250000) in comparison to animals which were immunized with β-Gal alone. Bars represent mean Ab titer or amount±SE in each group. Each group consists of five mice. Data are representative of two separate experiments.
Isotyp ELISA: 96-well Nunc-Immuno MaxiSorp assay plates (Nunc, Roskilde, Denmark) were coated with 100 μl of β-Gal (Boehringer, Mannheim, Germany) at 5 μg/ml in 0.05 M carbonate buffer (pH 8.2) per well. Serial two-fold dilutions of sera or lavages in PBS with 1% BSA and 0.05% Tween 20 were added (100 μl/well), and plates incubated for 2 h at 37° C. After washing, biotin-conjugated rat anti-mouse IgG1 or IgG2a (Pharmingen, Hamburg, Germany) were added to determine IgG subclasses. Plates were incubated for an additional 1 h at 37° C. After four washes, 100 μl of peroxidase-conjugated streptavidin (Pharmingen) was added to cells and plates incubated at 37° C. for 30 min. After four washes, reactions were developed with ABTS in 0.1 M citrate-phosphate buffer (pH 4.35) containing 0.01% H2O2. To determine the concentration of IgG subclasses in serum, standard curves were obtained by coating the wells with an isotype-specific goat anti-mouse IgG, and then by incubating with purified mouse IgG1 or IgG2a antibodies (Dianova, Hamburg, Germany).

[2] = test system: β-Gal-specific mucosal S-IgA; experiment: β-Gal-specific secretory IgA in bronchial alveolar and vaginal lavages after i.n. immunisation; type: in vivo, Balb/c mice; conditions: for expression of β-Gal-specific S-IgA titers (lavage not named, FIG. 6): 20 up to 30 μg glycolipid, probably vaginal lavage
Procedure: Co-administration of β-Gal with 10 μg glycolipids 1, 5 and 6 induced β-Gal-specific mucosal S-IgA responses in Balb/c mice. Balb/c mice were immunized by the i.n. or s.c. route with β-Gal alone or together with glycolipids 1, 5 and 6 three times at 2-wk intervals. 10 days after the final immunization, the immunized mice were sacrificed. β-Gal-specific S-IgA titers were determined in vaginal lavage (VL) and Bronchial alveolar lavage (BAL) of mice immunized with β-Gal co-administered with glycolipids 1, 5 and 6 by the intranasal route. […] Bars represent mean Ab titer or amount±SE in each group. Each group consists of five mice. Data are representative of three separate experiments.
Co-administration of β-Gal with 20 up to 30 μg glycolipids 5 and 6 induced β-Gal-specific mucosal S-IgA responses in Balb/c mice. Balb/c mice were immunized by the i.n. or s.c. route with β-Gal alone or together with glycolipids 5 and 6 three times at 2-wk intervals. 10 days after the final immunization, the immunized mice were sacrificed. β-Gal-specific S-IgA titers were determined in vaginal lavage (VL) and Bronchial alveolar lavage (BAL) of mice immunized with β-Gal co-administered with glycolipids 5 and 6 by the intranasal route.
Experimental protocol: at day 38, mice were sacrificed and the final sampling was performed. Vaginal and lung lavages were obtained by flushing the organs with 1 ml of PBS supplemented with 50 mM EDTA, 0.1% BSA, and 10 mM PMSF. Lavages were then centrifuged to remove debris (10 min at 3000×g), and supernatant fluids were stored at −20° C. To determine the concentration of total IgA present in the lung and vaginal lavages, serial dilutions of the corresponding samples were incubated in microtiter plates that were previously coated with goat anti-mouse IgA (Sigma Chemie), as capture antibodies (100 μl/well). Serial dilutions of purified mouse IgA (Sigma Chemie) were used to generate a standard curve.

[3] = i.n. co-administration with β-Gal (FIG. 9 and FIG. 10)
[4] = s.c. co-administration with β-Gal (FIG. 9 and FIG. 10)
[5] = 10 μg glycolipid + 30 μg β-Gal, day 38
[6] = 20 up to 30 μg glycolipid + 30 μg β-Gal, day 38

With CCCCCCCCCCCCCCOCC(COCCCCCCCCCCCCCC)O[C@@H]1O[C@H](CO[C@H]2O[C@H](CO)[C@H](O)[C@H](O)[C@H]2O)[C@@H](O)[C@H](O)[C@H]1O [glycolipid 6, 1,3-di-O-tetradecyl-2-O-[6′-O-(α-D-galactopyranosyl)-β-D-glucopyranosyl]-sn-glycerol] the “IgG1 / IgG2a isotype pattern (Th2 / Th1)” value [1, 3] was “comparable expression of IgG1 and IgG2a isotypes”, the “enhancement of β-Galactosidase-specific IgG secretion vs β-Gal alone” value ([1]; i.n.) was 8 fold and the “increase of β-Gal-specific IgG1 secretion vs β-Gal alone” value ([1]; i.n.) was 24 fold. The “increase of β-Gal-specific IgG2a secretion vs β-Gal alone” value ([1]; i.n.) was 1.8 fold, the “enhancement of β-Galactosidase-specific IgG2a isotype vs β-Gal alone” value ([1]; i.n.) was 7 fold and the “increase of β-Gal specific IgG1 secretion vs β-Gal alone” value [1] was “no effect”. The “secretion of IgG2a isotype vs β-Gal alone” value [1] was “no enhanced secretion”, the “IgG1 / IgG2a isotype pattern (Th2 / Th1)” value [1, 4] was “dominant Th2 response” and the “β-Galactosidase-specific sIgA titer in bronchial alveolar lavage (BAL)” value (shortened to “β-Galactosidase-specific sIgA titer”) [2, 5] was “below the detection level”. The “β-Galactosidase-specific sIgA titer” value [2, 6] was “comparable sIgA titers in BAL; also recorded: significant increase” and the “expression of β-Gal-specific S-IgA titers (lavage not named, FIG. 6)” value [2] was “comparable with titer of the control groups”.

For CCCCCCCCCCCCCCOCC(COCCCCCCCCCCCCCC)O[C@@H]1O[C@H](CO)[C@@H](O[C@H]2O[C@H](CO)[C@@H](O)[C@H](O)[C@H]2O)[C@H](O)[C@H]1O [glycolipid 5, 1,3-Di-O-tetradecyl-2-O-[4′-O-(α-D-glucopyranosyl)-β-D-glucopyranosyl]-sn-glycerol], the “IgG1 / IgG2a isotype pattern (Th2 / Th1)” value [1, 3] was “dominant Th2 pattern”, the “enhancement of β-Galactosidase-specific IgG secretion vs β-Gal alone” value ([1]; i.n.) was 29 fold and the “increase of β-Gal-specific IgG1 secretion vs β-Gal alone” value ([1]; i.n.) was 50 fold. The “increase of β-Gal-specific IgG2a secretion vs β-Gal alone” value ([1]; i.n.) was 6 fold, the “enhancement of β-Galactosidase-specific IgG2a isotype vs β-Gal alone” value ([1]; i.n.) was 7 fold and the “increase of β-Gal specific IgG1 secretion vs β-Gal alone” value [1] was 2.2 fold. For the same molecule, the “secretion of IgG2a isotype vs β-Gal alone” value [1] was “no enhanced secretion”, the “IgG1 / IgG2a isotype pattern (Th2 / Th1)” value [1, 4] was “dominant Th2 pattern” and the “enhancement of β-Galactosidase-specific IgG secretion vs β-Gal alone” value ([1]; s.c.) was 7 fold. For the same molecule, the “β-Galactosidase-specific sIgA in vaginal lavages” value [2, 5] was “enhanced”, the “β-Galactosidase-specific sIgA titer” value [2, 5] was > 1/130 and significant increase and the “β-Galactosidase-specific sIgA titer” value [2, 6] was > 1/170 and significant increase. For the same molecule, the “expression of β-Gal-specific S-IgA titers (lavage not named, FIG. 6)” value [2] was “comparable with titer of the control groups”.

In the case of CCCCCCCC/C=C\CCCCCCCCOCC(COCCCCCCCC/C=C\CCCCCCCC)O[C@@H]1O[C@H](CO)[C@@H](O[C@H]2O[C@H](CO)[C@@H](O)[C@H](O)[C@H]2O)[C@H](O)[C@H]1O (relative stereo) [glycolipid 1, 1,3-Di-O[cis-9-octadecenyl]-2-O-[4′-O-(α-D-glycopyranosyl)-β-D-glycopyranosyl]-sn-glycerol], the “IgG1 / IgG2a isotype pattern (Th2 / Th1)” value [1, 3] is reported as “dominant Th2 pattern”, the “enhancement of β-Galactosidase-specific IgG secretion vs β-Gal alone” value ([1]; i.n.) is reported as “no effect” and the “increase of β-Gal-specific IgG1 secretion vs β-Gal alone” value ([1]; i.n.) is reported as “no effect”. For the same molecule, the “increase of β-Gal-specific IgG2a secretion vs β-Gal alone” value ([1]; i.n.) was “no effect”, the “increase of β-Gal specific IgG1 secretion vs β-Gal alone” value [1] was 2.5 fold and the “secretion of IgG2a isotype vs β-Gal alone” value [1] was “no enhanced secretion”. The “IgG1 / IgG2a isotype pattern (Th2 / Th1)” value [1, 4] was “dominant Th2 pattern” and the “β-Galactosidase-specific sIgA titer” value [2, 5] was “below the detection level”.
